Data: patent US20250281465A1, “MOLECULES THAT ENHANCE EXTRACELLULAR VESICLE RELEASE” (priority 2022, published 2025)
“Also recorded” adds a separate entry of the source.

Legend:
[1] = test system: mBMDCs; assay: Cell viability / cytotoxicity in mBMDCs (MTT); type: cell-based, mouse; details: mBMDCs, Example 2 clustered hits
Protocol: FIGS. 30A-30B. […] After 48 hours incubation, cell viability was determined by MTT assay.
mBMDCs (10^5 cells/200 μL/well) were treated with 10 and 5 μM of a test compound in 96-well plates overnight. After 18 hours of drug treatment, MTT (0.5 mg/ml) was added to each well. The cells were lysed after 6-8 hours incubation, and absorbance values at 570 and 650 nm were measured. PrestoBlue reagent (#A13261, Thermo Fisher Scientific) was used for cell viability assay in CD63 HTS as described earlier.
Cell viability assay. mBMDCs (2×10^6 cells/200 μL/well in RPMI1640 supplemented with dialyzed 10% FBS, or 1.5×10^6 cells/200 μL/well in RPMI1640 supplemented with 10% exosome depleted FBS) were treated with 10 μM of each test compound in 96-well plates. After 46-48 hours of compound treatment, MTT (0.5 mg/mL) was added to each well. The cells were lysed after overnight incubation, and absorbance values at 570 and 650 nm were measured.

[2] = test system: THP-1 cells; assay: Intracellular Ca2+ influx screening (Fura-2) in THP-1 cells; type: cell-based, human; details: hit candidate compounds 10 μM, 25 minutes, vs vehicle control (DMSO)
Protocol: FIGS. 1A-1D. Intracellular Ca^2+ influx screening of 84 HTS hit candidate compounds. (A) THP-1 cells were loaded with the ratiometric Ca^2+ indicator, Fura-2, and treated with lonomycin (ION, 1 μM), Thapsigargin (1 μM), or 84 hit candidate compounds (10 μM) for 25 minutes. Data are presented as the area under the curve (AUG) of OD340/380 ratios corresponding to the intracellular Ca^2+ kinetics. The baseline-subtracted AUG was calculated using GraphPad Prism (GraphPad Software, San Diego, CA). (B) Ca^2+ mobilization by compound #634. mBMDCs were loaded with the ratiometric Ca^2+ indicator, Fura-8, and treated with ION (1 μM), or #634 (2 and 10 μM) for 25 minutes. The dashed line indicates the timing of compounds added. The data shown are representative of three independent experiments showing similar results. (C) Ca^2+ add-back assay. Fura-8-loaded mBMDC were treated with ION (1 μM), or compound #634 (2 μM, 10 μM) for 15 minutes in the absence of extracellular Ca^2+, and then Ca^2+ (final 1.8 mM) was added at 15 minutes. Data shown are representative of three independent experiments showing similar results. (D) C57BL/6 mice (n=5/group) were intramuscularly immunized with ovalbumin (OVA, 20 μg/mouse) adjuvanted with compound #634 (200 nmol/mouse), or Veh (10% DMSO) on days 0 and 21 and bled on day 28. OVA-specific IgGI and IgG2c levels in sera were determined by ELISA. **p<0.01, ***p<0.001, ns (not significant) by KruskalWallis tests with Dunn's post hoc test vs. Veh.
FIGS. 18A-18C. Compound 634 induces intracellular Ca^2+ levels in mBMDCs. […] The time-response pattern of intracellular Ca^2+ levels was recorded for 25 minutes. AUC of OD340/380 ratios corresponds to the intracellular Ca^2+ kinetics, and the baseline-subtracted AUC was calculated by GraphPad Prism. […]
FIGS. 24A-24B. […] The time-response pattern of intracellular Ca^2+ levels was recorded with a plate reader for 25 minutes. (A) The AUC of OD340/380 ratios corresponds to the intracellular Ca^2+ kinetics and the baseline-subtracted AUC was calculated by GraphPad Prism (FIG. 36). […]

[3] = test system: NF-κB; assay: NF-κB-bla THP-1 HTS; type: cell-based, human; details: 10 μM, 5 hours
Protocol: The robotic HTS using the three reporter cells were performed using 384-well plates by the SelectScreen™ service, Thermo Fisher Scientific (Madison, WI) (Pu et al., 2012; Chan et al., 2017b; Shukla et al., 2018). For HTS using NF-κB-bla and ISRE-bla THP-1 cells, LPS (100 ng/ml) and human IFN-α (50 nM) were used as the positive controls, respectively, while 0.5% DMSO was used as vehicle (Veh). The cells were incubated with compounds (10 μM) for 5 hours, and LiveBLAzer™ FRET BIG substrate (CCF4-AM) mixture was added. Fluorescence was measured at an excitation wavelength of 405 nm, and emission wavelengths of 465 and 535 nm. The background values were subtracted from the raw values (cell-free wells at the same fluorescence wavelength). Emission ratios were calculated by dividing background-subtracted values from em1ss1on wavelength of 465 nm by those from emission wavelength of 535 nm. The response ratio (RR) was calculated as follows (emission ratio of a test well)/(average emission ratio of wells with Veh). Further, for comparison of activity, “% activation” for each compound was computed within the plate as 100×(compound RR−average Veh RR)/(average LPS RR−average Veh RR).

[4] = test system: mBMDCs; assay: EV release from mBMDCs (differential ultracentrifugation, MRPS); details: 10 μM, 46-48 h, vs Veh

Compound: COC(=O)c1sc(-c2cccs2)cc1NS(=O)(=O)c1ccsc1C(=O)OC [#504]
- MTT assay values (cell viability) [1]: higher MTT values
- intracellular Ca^2+ increase (Fura-2 assay) [2]: higher intracellular Ca^2+ increase than vehicle control; also recorded: potent in calcium Fura-2 assay
- NF-κB activity (primary HTS) [3]: much lower NF-κB inducing activity
- number of EV particles released in the culture supernatant [4]: low
